In ChEMBL document CHEMBL1150868, “Verbenachalcone, a novel dimeric dihydrochalcone with potentiating activity on nerve growth factor-action from Verbena littoralis” (J Nat Prod, 2001):
Calls of active or inactive are those of the source. No cut-off for these calls is given here.

Columns and labels:
PC-12 [1] = assay: Enhancement of nerve growth factor-stimulated neurite outgrowth in rat PC12D cells at > 10 uM by microscopy; type: functional, cell-based
PC-12 [2] = assay: Induction of neurite outgrowth in rat PC12D cells at 1 to 30 uM in absence of nerve growth factor by microscopy; type: functional, cell-based

SMILES: COc1cc(CCC(=O)c2ccc(O)cc2O)ccc1Oc1cc(CCC(=O)c2ccc(O)cc2O)ccc1O
- Activity (PC-12 [1]): Active
- Activity (PC-12 [2]): inactive
